Results published in paper PMC7652251, “Anti-aging Effects of Mangosteen Peel Extract and Its Phytochemical Compounds: Antioxidant Activity, Enzyme Inhibition and Molecular Docking Simulation” (Tropical Life Sciences Research, 2020).

Experiments:
[1] = target: T1, porcine pancreas elastase (Sus scrofa, UniProt P00772); assay: absorbance […] nm, p-nitroanilide release; assay type: biochemical
T1 construct: gene CELA1; native enzyme from porcine pancreas, commercial

mushroom tyrosinase = target: T2, mushroom tyrosinase; assay: absorbance […] nm, L-DOPA oxidation; assay type: biochemical; conditions: L-DOPA 1.5 mM stock (20 μL added), potassium phosphate 20 mM pH 6.8, room temperature, 15 min pre-incubation
T2 construct: gene PPO1; PPO3 (2Y9X) is only the docking model

[2] = target: T3, Collagenase from Clostridium histolyticum; assay: absorbance […] nm, FALGPA hydrolysis; assay type: biochemical, Hathewaya histolytica; conditions: N-[3-(2-furyl)acryloyl]-Leu-Gly-Pro-Ala 1 mM, Tricine 50 mM pH 7.5, 37°C, 20 min pre-incubation
T3 construct: gene colG

[3] = target: T4, bovine testes hyaluronidase type I-S (Bos taurus, UniProt F1MTV1); assay: turbidity […] nm, hyaluronic acid with acidic albumin; assay type: biochemical; conditions: phosphate 300 mM pH 5.35, 37°C, 45 min
T4 construct: gene SPAM1; native enzyme from bovine testes, commercial
T4 sequence (F1MTV1 36-553): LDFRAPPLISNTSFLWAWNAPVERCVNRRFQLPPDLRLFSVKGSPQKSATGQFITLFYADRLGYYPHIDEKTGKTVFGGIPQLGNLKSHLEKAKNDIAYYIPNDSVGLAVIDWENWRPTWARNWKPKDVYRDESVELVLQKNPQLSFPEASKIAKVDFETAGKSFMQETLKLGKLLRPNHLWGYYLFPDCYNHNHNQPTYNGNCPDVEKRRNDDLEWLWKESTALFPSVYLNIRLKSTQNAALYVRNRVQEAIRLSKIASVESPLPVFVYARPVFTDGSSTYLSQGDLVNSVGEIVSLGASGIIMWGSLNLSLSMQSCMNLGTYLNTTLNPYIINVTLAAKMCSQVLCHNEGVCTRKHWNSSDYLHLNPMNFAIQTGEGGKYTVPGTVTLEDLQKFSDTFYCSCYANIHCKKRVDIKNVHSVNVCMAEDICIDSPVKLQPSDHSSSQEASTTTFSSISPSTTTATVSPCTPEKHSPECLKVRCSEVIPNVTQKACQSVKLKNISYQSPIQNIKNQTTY

T1 sequence (P00772 27-266): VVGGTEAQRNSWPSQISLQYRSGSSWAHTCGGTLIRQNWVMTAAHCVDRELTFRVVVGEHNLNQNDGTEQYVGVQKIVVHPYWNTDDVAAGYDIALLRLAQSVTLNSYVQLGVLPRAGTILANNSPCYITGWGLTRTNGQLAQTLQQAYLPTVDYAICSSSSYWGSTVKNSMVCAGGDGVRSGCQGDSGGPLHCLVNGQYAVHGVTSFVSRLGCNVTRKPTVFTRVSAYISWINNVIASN

Row | SMILES | IC50 [1] | IC50 (mushroom tyrosinase) | IC50 [2] | IC50 [3]
1 | COc1c(O)cc2oc3cc(O)c(CC=C(C)C)c(O)c3c(=O)c2c1CC=C(C)C [Alpha-mangostin] | 50 µM | 173 µM | 23.8 µM | 39.5 µM
2 | CC(C)=CCc1c(O)cc2oc3cc(O)c(O)c(CC=C(C)C)c3c(=O)c2c1O [Gamma-mangostin] | 156 µM | 127 µM | 140 µM | 60.2 µM
3 | CC(C)=CCc1c(O)cc2oc3cc(O)c(O)c(CCC(C)(C)O)c3c(=O)c2c1O [Garcinone C] | 49.1 µM | 159 µM | 79.2 µM | 180 µM
4 | COc1c(O)cc2oc3cc(O)c(CC=C(C)C)c(O)c3c(=O)c2c1CCC(C)(C)O [Garcinone D] | 49.8 µM | 252 µM | 159 µM | 204 µM
